Data reported in US20230201301A1 (priority 2020, published 2023).

Legend:
sTREM-1 = system: sTREM-1; set-up: species or system transgenic mice B6.Cg-Tg(K18-ACE2)2Prlmn/J; settings: mouse, in vivo, ip
cytokines/chemokines = system: cytokines/chemokines; set-up: species or system transgenic mice B6.Cg-Tg(K18-ACE2)2Prlmn/J; settings: mouse, in vivo
SARS-CoV-2 = format: in vivo, transgenic mice B6.Cg-Tg(K18-ACE2)2Prlmn/J

Q: LQEEDTGEYGCV (TLT-1 peptide) [LR12] was tested. Which “plasma sTREM-1 level (median)” value (sTREM-1) did it give?
A: 132.3 pg/mL

Q: And the “IP-10 plasma concentration vs vehicle” value (cytokines/chemokines)?
A: decrease

Q: What about the “IFNα plasma concentration vs vehicle” value (cytokines/chemokines; ip) of the same sequence?
A: decrease

Q: And the “IL-6 plasma concentration vs vehicle” value (cytokines/chemokines; ip)?
A: decrease

Q: And the “IL-10 plasma concentration vs vehicle” value (cytokines/chemokines; ip)?
A: increase

Q: What about the “bodyweight loss day 0 to day 10” value (SARS-CoV-2; 2 mg i.p. at t0+1 h, 24, 48, 72, 96 h, vs vehicle, LOCF, FIG. 2-3) of the same sequence?
A: significant reduced bodyweight loss

Q: What about the “mortality (survival D0 to D10)” value (SARS-CoV-2; 2 mg i.p. at t0+1 h, 24, 48, 72, 96 h, vs vehicle, N=16 per treatment group, FIG. 1) of the same sequence?
A: significant reduction in mortality

Q: What about the mean respiratory score (SARS-CoV-2; scale 0 (normal respiration) to 5 (dead mouse), up to day 10, 2 mg i.p., vehicle group 5, FIG. 5) of the same sequence?
A: 3

Q: And the mean clinical score (SARS-CoV-2; scale 1 (healthy mouse) to 5 (dead mouse), up to day 10, 2 mg i.p., vehicle group 5, FIG. 4)?
A: 3.5
